Key:
[1] = molecular target: ABL1 (Q252H)-nonphosphorylated (Homo sapiens, UniProt P00519, Q252H); assay: Kinase profiling; format: binding; conditions: read-out: % Ctrl @ 1000 nM
BMPR1B = BMPR1B (Homo sapiens, UniProt O00238); assay: Kinase profiling; format: binding; conditions: read-out: % Ctrl @ 1000 nM
CLK2 = CLK2 (Homo sapiens, UniProt P49760); assay: Kinase profiling; format: binding; conditions: read-out: % Ctrl @ 1000 nM
CSF1R = CSF1R (Homo sapiens, UniProt P07333); assay: Kinase profiling; format: binding; conditions: read-out: % Ctrl @ 1000 nM
CSNK1D = CSNK1D (Homo sapiens, UniProt P48730); assay: Kinase profiling; format: binding; conditions: read-out: % Ctrl @ 1000 nM
DCAMKL1 = DCAMKL1 (Homo sapiens, UniProt O15075); assay: Kinase profiling; format: binding; conditions: read-out: % Ctrl @ 1000 nM
DMPK2 = DMPK2 (Homo sapiens, UniProt Q6DT37); assay: Kinase profiling; format: binding; conditions: read-out: % Ctrl @ 1000 nM
DRAK2 = DRAK2 (Homo sapiens, UniProt O94768); assay: Kinase profiling; format: binding; conditions: read-out: % Ctrl @ 1000 nM
EGFR (E746-A750del) = EGFR (E746-A750del) (Homo sapiens, UniProt P00533, DEL746-750); assay: Kinase profiling; format: binding; conditions: read-out: % Ctrl @ 1000 nM
EPHB1 = EPHB1 (Homo sapiens, UniProt P54762); assay: Kinase profiling; format: binding; conditions: read-out: % Ctrl @ 1000 nM
EPHB2 = EPHB2 (Homo sapiens, UniProt P29323); assay: Kinase profiling; format: binding; conditions: read-out: % Ctrl @ 1000 nM
EPHB4 = EPHB4 (Homo sapiens, UniProt P54760); assay: Kinase profiling; format: binding; conditions: read-out: % Ctrl @ 1000 nM
ERK5 = ERK5 (Homo sapiens, UniProt Q13164); assay: Kinase profiling; format: binding; conditions: read-out: % Ctrl @ 1000 nM
ERK5, sequence (Q13164 whole entry): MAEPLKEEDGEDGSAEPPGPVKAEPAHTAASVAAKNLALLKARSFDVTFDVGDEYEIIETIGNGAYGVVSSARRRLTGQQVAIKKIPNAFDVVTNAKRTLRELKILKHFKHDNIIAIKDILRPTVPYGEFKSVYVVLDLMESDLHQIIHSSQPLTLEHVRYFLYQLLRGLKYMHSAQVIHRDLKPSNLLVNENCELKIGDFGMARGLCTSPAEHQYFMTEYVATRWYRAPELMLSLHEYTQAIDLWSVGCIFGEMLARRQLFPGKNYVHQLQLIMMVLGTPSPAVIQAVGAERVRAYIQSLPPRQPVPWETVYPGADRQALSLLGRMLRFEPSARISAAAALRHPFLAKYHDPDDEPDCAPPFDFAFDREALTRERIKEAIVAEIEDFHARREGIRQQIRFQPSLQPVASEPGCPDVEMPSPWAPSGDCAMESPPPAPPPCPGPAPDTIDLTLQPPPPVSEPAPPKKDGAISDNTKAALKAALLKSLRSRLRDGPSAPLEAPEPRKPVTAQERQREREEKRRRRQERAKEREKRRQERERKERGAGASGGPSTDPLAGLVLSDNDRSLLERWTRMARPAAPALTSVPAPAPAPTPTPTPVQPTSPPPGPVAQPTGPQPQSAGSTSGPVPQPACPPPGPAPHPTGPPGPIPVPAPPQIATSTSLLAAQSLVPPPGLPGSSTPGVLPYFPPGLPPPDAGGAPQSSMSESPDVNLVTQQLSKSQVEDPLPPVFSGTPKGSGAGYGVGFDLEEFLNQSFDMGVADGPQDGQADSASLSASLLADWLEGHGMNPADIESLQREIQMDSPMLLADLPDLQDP

KIT = KIT (Homo sapiens, UniProt P10721); assay: Kinase profiling; format: binding; conditions: read-out: % Ctrl @ 1000 nM
KIT, sequence (P10721 26-976): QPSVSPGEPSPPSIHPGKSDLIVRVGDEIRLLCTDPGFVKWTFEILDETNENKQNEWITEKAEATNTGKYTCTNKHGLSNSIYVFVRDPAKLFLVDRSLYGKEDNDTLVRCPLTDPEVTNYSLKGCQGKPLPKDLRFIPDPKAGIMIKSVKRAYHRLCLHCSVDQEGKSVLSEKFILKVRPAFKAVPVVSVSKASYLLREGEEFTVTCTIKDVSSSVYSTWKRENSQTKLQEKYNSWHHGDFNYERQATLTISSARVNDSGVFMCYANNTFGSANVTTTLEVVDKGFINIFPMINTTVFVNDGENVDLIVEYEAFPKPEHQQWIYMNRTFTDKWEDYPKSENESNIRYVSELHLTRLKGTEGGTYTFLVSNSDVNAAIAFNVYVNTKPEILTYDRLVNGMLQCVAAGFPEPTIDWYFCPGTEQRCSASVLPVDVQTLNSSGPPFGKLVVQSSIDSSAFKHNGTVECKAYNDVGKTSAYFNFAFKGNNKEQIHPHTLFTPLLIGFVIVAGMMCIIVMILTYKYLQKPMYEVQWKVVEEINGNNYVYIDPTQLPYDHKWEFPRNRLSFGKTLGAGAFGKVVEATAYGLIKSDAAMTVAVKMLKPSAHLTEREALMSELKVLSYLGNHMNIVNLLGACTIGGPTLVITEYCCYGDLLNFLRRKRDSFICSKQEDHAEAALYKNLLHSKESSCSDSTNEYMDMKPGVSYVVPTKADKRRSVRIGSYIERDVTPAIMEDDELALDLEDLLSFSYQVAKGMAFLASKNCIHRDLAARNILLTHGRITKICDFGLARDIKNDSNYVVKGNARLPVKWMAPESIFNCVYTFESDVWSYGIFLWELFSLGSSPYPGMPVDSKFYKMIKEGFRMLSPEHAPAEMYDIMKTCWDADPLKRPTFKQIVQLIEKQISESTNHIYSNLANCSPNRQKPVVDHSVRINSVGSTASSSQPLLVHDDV

KIT (D816H) = KIT (D816H) (Homo sapiens, UniProt P10721, D816H); assay: Kinase profiling; format: binding; conditions: read-out: % Ctrl @ 1000 nM
KIT (D816H), sequence (P10721 26-976 D816H): as the sequence (P10721 26-976) above, with D791H counted along it

LIMK1 = LIMK1 (Homo sapiens, UniProt P53667); assay: Kinase profiling; format: binding; conditions: read-out: % Ctrl @ 1000 nM
LIMK1, sequence (P53667 whole entry): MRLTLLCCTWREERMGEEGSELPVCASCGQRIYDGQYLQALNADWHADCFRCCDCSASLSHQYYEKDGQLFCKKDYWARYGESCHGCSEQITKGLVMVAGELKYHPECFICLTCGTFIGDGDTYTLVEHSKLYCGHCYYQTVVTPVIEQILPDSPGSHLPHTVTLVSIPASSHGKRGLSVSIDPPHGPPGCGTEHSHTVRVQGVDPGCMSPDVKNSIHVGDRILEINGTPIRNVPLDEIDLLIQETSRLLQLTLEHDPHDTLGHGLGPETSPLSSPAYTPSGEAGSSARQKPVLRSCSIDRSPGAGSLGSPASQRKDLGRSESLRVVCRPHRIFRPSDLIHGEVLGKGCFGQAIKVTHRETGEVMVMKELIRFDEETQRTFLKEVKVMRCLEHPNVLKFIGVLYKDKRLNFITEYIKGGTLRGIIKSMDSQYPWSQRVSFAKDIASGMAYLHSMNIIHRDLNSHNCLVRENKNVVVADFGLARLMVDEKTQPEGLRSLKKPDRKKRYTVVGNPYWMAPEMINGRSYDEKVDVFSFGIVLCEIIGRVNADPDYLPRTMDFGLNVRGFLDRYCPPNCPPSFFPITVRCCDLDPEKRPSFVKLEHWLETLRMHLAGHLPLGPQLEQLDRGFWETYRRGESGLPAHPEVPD

LRRK2 (G2019S) = LRRK2 (G2019S) (Homo sapiens, UniProt Q5S007, G2019S); assay: Kinase profiling; format: binding; conditions: read-out: % Ctrl @ 1000 nM
MAPKAPK2 = MAPKAPK2 (Homo sapiens, UniProt P49137); assay: Kinase profiling; format: binding; conditions: read-out: % Ctrl @ 1000 nM
MARK3 = MARK3 (Homo sapiens, UniProt P27448); assay: Kinase profiling; format: binding; conditions: read-out: % Ctrl @ 1000 nM
NDR2 = molecular target: T1, NDR2 (Homo sapiens, UniProt Q9Y2H1); assay: Kinase profiling; format: binding; conditions: read-out: % Ctrl @ 1000 nM
T1 construct: T7 phage fusion (said for most assays); made in house

p38-beta = p38-beta (Homo sapiens, UniProt Q15759); assay: Kinase profiling; format: binding; conditions: read-out: % Ctrl @ 1000 nM
PAK6 = PAK6 (Homo sapiens, UniProt Q9NQU5); assay: Kinase profiling; format: binding; conditions: read-out: % Ctrl @ 1000 nM
PDGFRA = PDGFRA (Homo sapiens, UniProt P16234); assay: Kinase profiling; format: binding; conditions: read-out: % Ctrl @ 1000 nM
PIK3CA (E542K) = PIK3CA (E542K) (Homo sapiens, UniProt P42336, E542K); assay: Kinase profiling; format: binding; conditions: read-out: % Ctrl @ 1000 nM
PIK3CA (E542K), sequence (P42336 whole entry E542K): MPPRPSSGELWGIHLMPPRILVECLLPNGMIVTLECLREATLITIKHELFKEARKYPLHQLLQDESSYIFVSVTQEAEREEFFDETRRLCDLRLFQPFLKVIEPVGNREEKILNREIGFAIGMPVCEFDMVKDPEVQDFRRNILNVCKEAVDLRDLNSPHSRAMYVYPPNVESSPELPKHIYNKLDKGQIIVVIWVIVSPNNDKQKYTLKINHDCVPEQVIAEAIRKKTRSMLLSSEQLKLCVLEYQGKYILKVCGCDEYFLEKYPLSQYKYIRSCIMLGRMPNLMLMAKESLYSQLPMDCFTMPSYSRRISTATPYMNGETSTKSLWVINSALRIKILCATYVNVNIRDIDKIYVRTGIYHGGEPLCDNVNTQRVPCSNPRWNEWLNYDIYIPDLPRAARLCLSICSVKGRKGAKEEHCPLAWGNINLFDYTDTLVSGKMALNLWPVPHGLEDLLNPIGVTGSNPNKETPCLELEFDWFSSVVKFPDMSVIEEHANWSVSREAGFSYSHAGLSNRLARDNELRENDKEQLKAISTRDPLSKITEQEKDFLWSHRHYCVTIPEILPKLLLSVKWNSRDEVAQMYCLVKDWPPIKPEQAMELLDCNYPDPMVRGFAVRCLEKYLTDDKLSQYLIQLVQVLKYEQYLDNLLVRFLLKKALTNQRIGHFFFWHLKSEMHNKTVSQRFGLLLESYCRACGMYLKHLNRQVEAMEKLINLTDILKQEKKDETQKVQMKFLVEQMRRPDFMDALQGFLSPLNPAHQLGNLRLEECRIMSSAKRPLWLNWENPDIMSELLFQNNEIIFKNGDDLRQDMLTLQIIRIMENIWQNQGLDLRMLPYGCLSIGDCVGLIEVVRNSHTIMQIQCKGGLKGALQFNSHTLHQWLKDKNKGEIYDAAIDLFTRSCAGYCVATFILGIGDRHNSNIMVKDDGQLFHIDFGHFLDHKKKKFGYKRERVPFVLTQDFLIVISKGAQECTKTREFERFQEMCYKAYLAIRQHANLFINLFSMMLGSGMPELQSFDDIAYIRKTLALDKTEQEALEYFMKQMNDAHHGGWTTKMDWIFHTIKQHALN

PIK3CA (E545A) = PIK3CA (E545A) (Homo sapiens, UniProt P42336, E545A); assay: Kinase profiling; format: binding; conditions: read-out: % Ctrl @ 1000 nM
PIK3CA (E545A), sequence (P42336 whole entry E545A): as the sequence (P42336 whole entry E542K) above, with K542E, E545A counted along it

RIOK1 = RIOK1 (Homo sapiens, UniProt Q9BRS2); assay: Kinase profiling; format: binding; conditions: read-out: % Ctrl @ 1000 nM
RIOK1, sequence (Q9BRS2 whole entry): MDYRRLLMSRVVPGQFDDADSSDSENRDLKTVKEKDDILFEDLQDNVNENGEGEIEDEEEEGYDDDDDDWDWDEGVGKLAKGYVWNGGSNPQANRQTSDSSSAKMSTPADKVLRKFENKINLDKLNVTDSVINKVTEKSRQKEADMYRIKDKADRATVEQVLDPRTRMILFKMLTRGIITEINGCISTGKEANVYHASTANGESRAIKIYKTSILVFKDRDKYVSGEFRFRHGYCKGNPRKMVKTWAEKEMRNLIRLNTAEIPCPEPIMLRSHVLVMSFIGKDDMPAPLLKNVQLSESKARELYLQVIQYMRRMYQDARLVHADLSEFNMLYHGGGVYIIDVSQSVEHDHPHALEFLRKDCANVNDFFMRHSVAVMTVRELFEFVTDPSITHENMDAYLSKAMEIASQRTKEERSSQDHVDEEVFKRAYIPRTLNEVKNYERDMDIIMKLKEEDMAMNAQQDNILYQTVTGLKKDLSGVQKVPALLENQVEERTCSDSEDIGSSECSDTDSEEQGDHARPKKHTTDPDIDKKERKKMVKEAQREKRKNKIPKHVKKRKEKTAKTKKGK

RIPK5 = RIPK5 (Homo sapiens, UniProt Q6XUX3); assay: Kinase profiling; format: binding; conditions: read-out: % Ctrl @ 1000 nM
ROCK1 = ROCK1 (Homo sapiens, UniProt Q13464); assay: Kinase profiling; format: binding; conditions: read-out: % Ctrl @ 1000 nM
[2] = molecular target: RPS6KA5 (Kin.Dom.1-N-terminal) (Homo sapiens, UniProt O75582); assay: Kinase profiling; format: binding; conditions: read-out: % Ctrl @ 1000 nM
[3] = molecular target: RSK4 (Kin.Dom.2-C-terminal) (Homo sapiens, UniProt Q9UK32); assay: Kinase profiling; format: binding; conditions: read-out: % Ctrl @ 1000 nM
RSK4 (Kin.Dom.2-C-terminal), sequence (Q9UK32 426-683 limits assumed): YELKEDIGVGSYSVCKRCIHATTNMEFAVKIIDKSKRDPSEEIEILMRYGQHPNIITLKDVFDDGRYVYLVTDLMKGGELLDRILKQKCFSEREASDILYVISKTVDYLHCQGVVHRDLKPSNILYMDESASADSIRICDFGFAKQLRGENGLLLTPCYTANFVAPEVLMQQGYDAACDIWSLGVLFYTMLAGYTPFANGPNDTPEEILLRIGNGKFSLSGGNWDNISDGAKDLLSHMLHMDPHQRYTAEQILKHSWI

SgK110 = SgK110 (Homo sapiens, UniProt P0C264); assay: Kinase profiling; format: binding; conditions: read-out: % Ctrl @ 1000 nM
SRPK3 = SRPK3 (Homo sapiens, UniProt Q9UPE1); assay: Kinase profiling; format: binding; conditions: read-out: % Ctrl @ 1000 nM
TBK1 = TBK1 (Homo sapiens, UniProt Q9UHD2); assay: Kinase profiling; format: binding; conditions: read-out: % Ctrl @ 1000 nM
TRKB = TRKB (Homo sapiens, UniProt Q16620); assay: Kinase profiling; format: binding; conditions: read-out: % Ctrl @ 1000 nM
TXK = TXK (Homo sapiens, UniProt P42681); assay: Kinase profiling; format: binding; conditions: read-out: % Ctrl @ 1000 nM
WNK1 = WNK1 (Homo sapiens, UniProt Q9H4A3); assay: Kinase profiling; format: binding; conditions: read-out: % Ctrl @ 1000 nM
WNK2 = WNK2 (Homo sapiens, UniProt Q9Y3S1); assay: Kinase profiling; format: binding; conditions: read-out: % Ctrl @ 1000 nM
[4] = test system: CD4 (T cell surface marker); assay: CD4 IHC test in MC-38 tumor; format: in vivo, mouse; conditions: MC-38 tumors; vs vehicle group
Description: MC38 tumor tissues were collected at the end of the in vivo efficacy trial. The tumor tissue was then embedded in paraffin. The expression of CD3/CD4/CD8/F4-80 were tested by immunohistochemistry stain.

BMPR1B, sequence (O00238 14-502): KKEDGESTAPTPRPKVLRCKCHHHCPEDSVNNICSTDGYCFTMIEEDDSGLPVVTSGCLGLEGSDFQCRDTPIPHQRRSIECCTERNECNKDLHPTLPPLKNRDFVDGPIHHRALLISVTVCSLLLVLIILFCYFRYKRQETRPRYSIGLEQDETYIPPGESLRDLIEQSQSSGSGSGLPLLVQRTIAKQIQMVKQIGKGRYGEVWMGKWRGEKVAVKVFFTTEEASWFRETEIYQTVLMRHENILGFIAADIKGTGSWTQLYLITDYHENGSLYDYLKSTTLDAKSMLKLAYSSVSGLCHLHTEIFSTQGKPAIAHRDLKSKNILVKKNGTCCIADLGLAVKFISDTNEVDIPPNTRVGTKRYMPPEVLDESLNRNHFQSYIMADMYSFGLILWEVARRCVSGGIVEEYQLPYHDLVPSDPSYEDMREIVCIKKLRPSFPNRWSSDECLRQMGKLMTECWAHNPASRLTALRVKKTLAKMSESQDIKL

Q: Cc1cc(Oc2cc(NC(=O)C3CC3)ncn2)ccc1NC(=O)Nc1ccc(Cl)c(C(F)(F)F)c1 [CBT-102] was tested. Which remaining activity at 1 µM [1] did it give?
A: Its remaining activity at 1 µM is 6%.

Q: What about the remaining activity at 1 µM (BMPR1B) of the same compound?
A: Its remaining activity at 1 µM is 99%.

Q: What about the remaining activity at 1 µM (CLK2) of the same compound?
A: Its remaining activity at 1 µM is 100%.

Q: What about the remaining activity at 1 µM (CSF1R) of the same compound?
A: Its remaining activity at 1 µM is 0%.

Q: And the remaining activity at 1 µM (CSNK1D)?
A: Its remaining activity at 1 µM is 77%.

Q: What about the remaining activity at 1 µM (DCAMKL1) of the same compound?
A: Its remaining activity at 1 µM is 100%.

Q: What about the remaining activity at 1 µM (DMPK2) of the same compound?
A: The remaining activity at 1 µM was 100%.

Q: And the remaining activity at 1 µM (DRAK2)?
A: The remaining activity at 1 µM was 100%.

Q: And the remaining activity at 1 µM (EGFR (E746-A750del))?
A: The remaining activity at 1 µM was 95%.

Q: And the remaining activity at 1 µM (EPHB1)?
A: The remaining activity at 1 µM was 38%.

Q: And the remaining activity at 1 µM (EPHB2)?
A: Its remaining activity at 1 µM is 44%.

Q: And the remaining activity at 1 µM (EPHB4)?
A: The remaining activity at 1 µM was 18%.

Q: And the remaining activity at 1 µM (ERK5)?
A: The remaining activity at 1 µM was 88%.

Q: What about the remaining activity at 1 µM (KIT) of the same compound?
A: Its remaining activity at 1 µM is 0%.

Q: What about the remaining activity at 1 µM (KIT (D816H)) of the same compound?
A: The remaining activity at 1 µM was 37%.

Q: And the remaining activity at 1 µM (LIMK1)?
A: Its remaining activity at 1 µM is 74%.

Q: What about the remaining activity at 1 µM (LRRK2 (G2019S)) of the same compound?
A: Its remaining activity at 1 µM is 38%.

Q: What about the remaining activity at 1 µM (MAPKAPK2) of the same compound?
A: Its remaining activity at 1 µM is 100%.

Q: What about the remaining activity at 1 µM (MARK3) of the same compound?
A: The remaining activity at 1 µM was 100%.

Q: What about the remaining activity at 1 µM (NDR2) of the same compound?
A: The remaining activity at 1 µM was 100%.

Q: What about the remaining activity at 1 µM (p38-beta) of the same compound?
A: The remaining activity at 1 µM was 0%.

Q: What about the remaining activity at 1 µM (PAK6) of the same compound?
A: The remaining activity at 1 µM was 94%.

Q: What about the remaining activity at 1 µM (PDGFRA) of the same compound?
A: The remaining activity at 1 µM was 2.1%.

Q: And the remaining activity at 1 µM (PIK3CA (E542K))?
A: Its remaining activity at 1 µM is 96%.

Q: And the remaining activity at 1 µM (PIK3CA (E545A))?
A: Its remaining activity at 1 µM is 100%.

Q: And the remaining activity at 1 µM (RIOK1)?
A: Its remaining activity at 1 µM is 54%.

Q: What about the remaining activity at 1 µM (RIPK5) of the same compound?
A: The remaining activity at 1 µM was 100%.

Q: What about the remaining activity at 1 µM (ROCK1) of the same compound?
A: The remaining activity at 1 µM was 100%.

Q: And the remaining activity at 1 µM [2]?
A: Its remaining activity at 1 µM is 100%.

Q: What about the remaining activity at 1 µM [3] of the same compound?
A: The remaining activity at 1 µM was 73%.

Q: And the remaining activity at 1 µM (SgK110)?
A: The remaining activity at 1 µM was 98%.

Q: And the remaining activity at 1 µM (SRPK3)?
A: Its remaining activity at 1 µM is 100%.

Q: What about the remaining activity at 1 µM (TBK1) of the same compound?
A: Its remaining activity at 1 µM is 98%.

Q: And the remaining activity at 1 µM (TRKB)?
A: The remaining activity at 1 µM was 71%.

Q: And the remaining activity at 1 µM (TXK)?
A: Its remaining activity at 1 µM is 100%.

Q: What about the remaining activity at 1 µM (WNK1) of the same compound?
A: The remaining activity at 1 µM was 87%.

Q: And the remaining activity at 1 µM (WNK2)?
A: The remaining activity at 1 µM was 100%.

Q: What about the “effect on T cell surface marker CD4 (IHC)” value [4] of the same compound?
A: The value was “no significant effect”.
